The values that follow come from PubChem BioAssay (NCI).

SMILES strings stand for the structures. Values joined by “and” are separate entries in the source; they are usually repeats but may differ in a detail not shown here. Equal entries are not always repeated.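 Where inhibition never reached the appropriate level, the endpoint shown equals the highest concentration tested. Otherwise, values were interpolated linearly from a five-concentration, 48-hour dose response in 96-well plates. At the GI50, growth is halved. TGI marks complete inhibition of growth.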

As a reminder, the GI50 is the concentration giving 50% growth inhibition. As usually defined, the TGI is the concentration giving total growth inhibition. Lower therefore signals greater sensitivity of the cells.

This assay deals with BT-549 breast. The assay is described as follows: DTP human tumour cell line panel, 48 h.

As to `C=C1C(=O)O[C@H]2[C@H]1CC/C(Cn1cc(-c3ccccc3)nn1)=C\CC[C@@]1(C)O[C@@H]21`, the GI50 is 2.65 µM and the TGI came out at 8.97 µM.
The corresponding values for `CCN(CC)CCCCCCCNc1c2ccc(Cl)cc2nc2ccc(OC)cc12` are 1.68 µM and 3.28 µM.
In the same order, the values of `CCOC(=O)Oc1c(OC)cc(C(=O)O[C@@H]2C[C@@H]3CN4CCc5c([nH]c6cc(OC)ccc56)[C@H]4C[C@@H]3[C@H](C(=O)OC)[C@H]2OC)cc1OC` are 9.08 µM and 24.1 µM.
Regarding `O=C(CCCn1ccnc1[N+](=O)[O-])NCCn1ccnc1`, the TGI was above 100 µM.
For `O=C1c2ccccc2-c2c1c1ccccc1c(=O)n2CCCN1CCOCC1`, the GI50 was 8 µM and the total growth inhibition concentration (TGI) came out at 25.5 µM.
In the same order, the values of `Cc1ccc2c(=O)c3cccc(CC(=O)O)c3oc2c1C` are above 100 µM and above 100 µM.
In the same order, the values of `COc1ccc(-c2nc(-c3ccccc3)c(-c3ccccc3)n2C2CC2)cc1OC1CCCC1` are above 165 µM and above 165 µM.
In the case of `Cc1ccc2c(N)c(C(=O)N[C@H]3CCc4cc(N5CC6CCC(C5)N6)ccc4C3)sc2n1`, the GI50 is 0.927 µM and the total growth inhibition concentration (TGI) amounted to 3.06 µM.
`COc1ccc(/C=C\c2cc(OC)c(OC)c(OC)c2)cc1OCC(=O)Nc1nc2ccc(C(F)(F)F)cc2s1`: the GI50 was 5.23 µM and the concentration for total growth inhibition (TGI) is above 100 µM.
Take `O=c1cc(-c2ccccc2)nc2n1CCN2Cc1ccccc1`: the GI50 is 26.6 µM and the TGI came to 67.2 µM.
Consider `O=[N+]([O-])/C=C/c1c[nH]c2ccccc12`, for which the GI50 was 14.1 µM and the TGI was determined as 27.5 µM.
`S=C(N/N=C/c1ccccn1)Nc1ccccn1`: the GI50 is 1.99 µM and the TGI is above 100 µM.
The corresponding values for `COc1ccc(-c2nc(-c3cn(C)c4ncccc34)cs2)cc1` are 68 µM and above 100 µM.
In the same order, the values of `O=C(NOCC1CC1)c1ccc(F)c(F)c1Nc1ccc(I)cc1Cl` are 3.39 µM and above 100 µM.
The corresponding values for `S=C(Nc1ccc(Cl)cc1)Nc1ccc(-c2nc3ccccc3[nH]2)cc1` are 19.1 µM and 53.1 µM.
With `Cc1[nH]c(/C=C2\C(=O)Nc3ccc(F)cc32)c(C)c1C(=O)NC[C@H](O)CN1CCOCC1`, the GI50 was 6.47 µM and the TGI was above 10 µM.
The corresponding values for `Cc1cc(S(=O)(=O)Nc2nnc(-c3ccccc3)c(-c3ccccc3)n2)c(SCc2ccccc2)cc1Cl` are 18.9 µM and 41.8 µM.
For `COc1ccc(-c2cn[nH]c2-c2cc(OC)c(OC)c(OC)c2)cc1N`, the GI50 was < 0.01 µM and 0.0374 µM.
In the case of `O=C1CCC2(C=C(Br)C(=O)C(Br)=C2)O1`, the GI50 is 13.6 µM and the TGI turned out to be 26.7 µM.
In the same order, the values of `O=C1C=Cc2ccccc2/C1=C/c1[nH]c(=O)[nH]c1O` are 6.75 µM and 96.3 µM.
The corresponding values for `CN(C)CCCNC(=O)c1cc(NC(=O)c2cc(NC(=O)c3cc(NC(=O)CCc4c[nH]c5ccccc45)cn3C)cn2C)cn1C` are above 100 µM and above 100 µM.
In the same order, the values of `O=C(C(Br)Br)C(Br)C(Br)c1ccccc1` (stereo not given) are 3.97 µM and 14.1 µM.
Regarding `O=C1c2ccccc2-c2c1c1ccccc1c(=O)n2CCNCCNCCn1c2c(c3ccccc3c1=O)C(=O)c1ccccc1-2`, the GI50 is 3.47 µM and the concentration for total growth inhibition (TGI) was found to be 17.4 µM.
The corresponding values for `COC(=O)/C(=C\c1c(C)[nH]c2ccccc12)S(=O)(=O)c1ccccc1` are 5.4 µM and 25.5 µM.
`O=C(NC(=S)Nc1ccc(Cl)cc1)c1ccccc1`: the GI50 was above 100 µM and the TGI was above 100 µM.
On to `O=C(Oc1ccc(CCl)cc1)c1ccccc1`, for which the GI50 was 0.154 µM and the TGI was 0.295 µM.
On to `COc1cc2c(/C=C3/C(=O)Nc4ccccc43)c(Cl)n(Cc3ccccc3[N+](=O)[O-])c2cc1C`, for which the GI50 was 9.16 µM and the TGI is 27.8 µM.
The corresponding values for `OCCCCC#Cc1ccccc1C#Cc1ccccc1C(F)(F)F` are 17.1 µM and 31.7 µM.
In the same order, the values of `CCN(CC)CCOc1ccc(/C=C2\CC3C4CC=C5C[C@@H](N6CCCC6)CC[C@]5(C)C4CC[C@]3(C)[C@H]2O)cc1OC` (stereo not given in full) are 4.7 µM and 19.3 µM.
The corresponding values for `N=C(N)CCCCCCCCC(=N)N` are 27.2 µM and above 100 µM.
For `Cc1nc2cccc(NCc3ccc(C(=O)NO)cc3)c2c(=O)n1-c1ccccc1`, the GI50 is 2.8 µM and the TGI is 8.1 µM.
